Reference: the NIST ThermoML archive (doi:10.1021/acs.jced.6b00430)

Assay: xn = mol fraction of the nth substance listed
Settings: 100 kPa, Liquid; for electrical conductivity: Alternating current cell with electrodes; for viscosity: Capillary tube (Ostwald / Ubbelohde) method; for mass density: Vibrating tube method

O=[PH](O)O [phosphonic acid] + O
Settings	electrical conductivity [S/m]	mass density [kg/m3]	viscosity [mPa·s]
298.15 K, x1 = 0.0122	7.43	1022.04	0.962
298.15 K, x1 = 0.0215	10.4	1039.69	1.05
298.15 K, x1 = 0.0299	13.4	1055.02	1.17
298.15 K, x1 = 0.0403	16.9	1073.24	–
298.15 K, x1 = 0.0451	–	1081.91	–
298.15 K, x1 = 0.0484	18.5	1087.03	–
298.15 K, x1 = 0.0541	20	1096.6	–
298.15 K, x1 = 0.0682	22.1	1119.23	–
298.15 K, x1 = 0.0704	22.4	1122.59	1.64
298.15 K, x1 = 0.0799	23.9	1137.16	–
298.15 K, x1 = 0.0832	–	1141.9	–
298.15 K, x1 = 0.1011	25.9	1167.81	2.06
298.15 K, x1 = 0.1335	26	1210.62	2.6
298.15 K, x1 = 0.1689	25.7	1252.12	–
298.15 K, x1 = 0.1909	25.2	1275.45	–
298.15 K, x1 = 0.197	25	1281.23	–
298.15 K, x1 = 0.2154	24.5	1299.73	4.24
298.15 K, x1 = 0.2524	23.1	1332.1	5.19
298.15 K, x1 = 0.292	20.7	1363.42	6.26
298.15 K, x1 = 0.3959	15.4	1434.35	–
308.15 K, x1 = 0.0122	7.89	1018.53	0.782
308.15 K, x1 = 0.0215	11.3	1035.86	0.852
308.15 K, x1 = 0.0299	14.3	1050.95	0.94
308.15 K, x1 = 0.0403	18.4	1068.89	–
308.15 K, x1 = 0.0451	–	1077.48	–
308.15 K, x1 = 0.0484	20	1082.48	–
308.15 K, x1 = 0.0541	21.3	1091.91	–
308.15 K, x1 = 0.0682	23.9	1114.22	–
308.15 K, x1 = 0.0704	24.2	1117.57	1.31
308.15 K, x1 = 0.0799	25.5	1131.9	–
308.15 K, x1 = 0.0832	–	1136.63	–
308.15 K, x1 = 0.1011	27.4	1162.2	1.65
308.15 K, x1 = 0.1335	28.6	1204.48	2.08
308.15 K, x1 = 0.1689	28.5	1245.45	–
308.15 K, x1 = 0.1909	28.5	1268.54	–
308.15 K, x1 = 0.197	28	1274.31	–
308.15 K, x1 = 0.2154	28	1292.62	3.32
308.15 K, x1 = 0.2524	25.8	1324.67	4.12
308.15 K, x1 = 0.292	23.9	1355.74	4.94
308.15 K, x1 = 0.3959	18.5	1426.18	–
318.15 K, x1 = 0.0122	8.18	1013.66	0.636
318.15 K, x1 = 0.0215	11.8	1030.98	0.689
318.15 K, x1 = 0.0299	15	1045.97	0.754
318.15 K, x1 = 0.0403	19.2	1063.78	–
318.15 K, x1 = 0.0451	–	1072.47	–
318.15 K, x1 = 0.0484	20.9	1077.26	–
318.15 K, x1 = 0.0541	22.4	1086.62	–
318.15 K, x1 = 0.0682	25.4	1108.74	–
318.15 K, x1 = 0.0704	25.8	1112.04	1.06
318.15 K, x1 = 0.0799	27.3	1126.27	–
318.15 K, x1 = 0.0832	–	1130.94	–
318.15 K, x1 = 0.1011	29.7	1156.21	1.32
318.15 K, x1 = 0.1335	31.3	1198.05	1.66
318.15 K, x1 = 0.1689	31.5	1238.7	–
318.15 K, x1 = 0.1909	31.2	1261.54	–
318.15 K, x1 = 0.197	30.8	1267.22	–
318.15 K, x1 = 0.2154	30	1285.38	2.68
318.15 K, x1 = 0.2524	28.8	1317.07	3.27
318.15 K, x1 = 0.292	27.2	1347.86	3.9
318.15 K, x1 = 0.3959	21.1	1418.01	–
328.15 K, x1 = 0.0122	8.38	1009.46	0.529
328.15 K, x1 = 0.0215	12.1	1026.28	0.567
328.15 K, x1 = 0.0299	15.3	1041.02	0.617
328.15 K, x1 = 0.0403	19.6	1058.55	–
328.15 K, x1 = 0.0451	–	1066.53	–
328.15 K, x1 = 0.0484	21.9	1071.83	–
328.15 K, x1 = 0.0541	23.5	1081.05	–
328.15 K, x1 = 0.0682	26.5	1102.88	–
328.15 K, x1 = 0.0704	26.9	1106.07	0.866
328.15 K, x1 = 0.0799	28.6	1120.18	–
328.15 K, x1 = 0.0832	–	1124.84	–
328.15 K, x1 = 0.1011	31	1149.89	1.07
328.15 K, x1 = 0.1335	33.3	1191.35	1.35
328.15 K, x1 = 0.1689	33.8	1231.63	–
328.15 K, x1 = 0.1909	33.3	1254.36	–
328.15 K, x1 = 0.197	33.2	1259.95	–
328.15 K, x1 = 0.2154	32.5	1277.98	2.2
328.15 K, x1 = 0.2524	31.3	1309.72	2.65
328.15 K, x1 = 0.292	30.2	1340.42	3.14
328.15 K, x1 = 0.3959	24.1	1409.83	–
338.15 K, x1 = 0.0122	8.4	1001.4	0.464
338.15 K, x1 = 0.0215	12.2	1018.77	0.49
338.15 K, x1 = 0.0299	15.6	1033.72	0.531
338.15 K, x1 = 0.0403	20.3	1051.48	–
338.15 K, x1 = 0.0451	–	1060.26	–
338.15 K, x1 = 0.0484	22.9	1064.9	–
338.15 K, x1 = 0.0541	24.2	1074.21	–
338.15 K, x1 = 0.0682	27.7	1096.19	–
338.15 K, x1 = 0.0704	28.2	1099.46	0.749
338.15 K, x1 = 0.0799	30	1113.58	–
338.15 K, x1 = 0.0832	–	1118.32	–
338.15 K, x1 = 0.1011	32.9	1143.23	0.922
338.15 K, x1 = 0.1335	35.3	1184.38	1.16
338.15 K, x1 = 0.1689	35.5	1224.52	–
338.15 K, x1 = 0.1909	35	1246.94	–
338.15 K, x1 = 0.197	34.9	1252.51	–
338.15 K, x1 = 0.2154	34.1	1270.41	1.88
338.15 K, x1 = 0.2524	33.5	1301.38	2.25
338.15 K, x1 = 0.292	32.4	1331.63	2.66
338.15 K, x1 = 0.3959	25.9	1401.65	–
